Patent US10695337B2, “Piperidin-4-yl azetidine derivatives as JAK1 inhibitors” (Incyte Corporation, priority 2010, dated 2020)

Biological target: human JAK1 (a.a. 837-1142)
Assay: In vitro JAK kinase assay (HTRF, phosphorylation of a biotinylated peptide), JAK1
Format: biochemical
Conditions: measured at 1 mM ATP; JAK2 IC50 / JAK1 IC50
Outline: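 N-terminal His-tagged catalytic domains, baculovirus-expressed in insect cells, phosphorylated a biotinylated peptide for 1 hr at room temperature. EDTA stop was followed by SA-APC and Eu-Py20 antibody for 40 minutes, with phosphopeptide read by HTRF.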

SMILES | IC50 Ratio JAK2/JAK1
N#CCC1(n2ccc(-c3ncnc4[nH]ccc34)c2)CN(C2CCN(C(=O)c3cc(OC(F)(F)F)ccc3F)CC2)C1 [Example 269] | 5.0
N#CCC1(n2ccc(-c3ncnc4[nH]ccc34)c2)CN(C2CCN(C(=O)c3c(F)ccc(F)c3F)CC2)C1 [Example 270, {3-[3-(7H-pyrrolo[2,3-d]pyrimidin-4-yl)-1H-pyrrol-1-yl]-1-[1-(2,3,6-trifluorobenzoyl)piperidin-4-yl]azetidin-3-yl}acetonitrile] | 6.1
N#CCC1(n2ccc(-c3ncnc4[nH]ccc34)c2)CN(C2CCN(C(=O)c3cccs3)CC2)C1 [Example 271, {3-[3-(7H-pyrrolo[2,3-d]pyrimidin-4-yl)-1H-pyrrol-1-yl]-1-[1-(2-thienylcarbonyl)piperidin-4-yl]azetidin-3-yl}acetonitrile] | 7.8
N#CCC1(n2ccc(-c3ncnc4[nH]ccc34)c2)CN(C2CCN(C(=O)c3cc(F)cc(C(F)(F)F)c3)CC2)C1 [Example 274, {1-{1-[3-fluoro-5-(trifluoromethyl)benzoyl]piperidin-4-yl}-3-[3-(7H-pyrrolo[2,3-d]pyrimidin-4-yl)-1H-pyrrol-1-yl]azetidin-3-yl}acetonitrile] | 9.0
N#CCC1(n2ccc(-c3ncnc4[nH]ccc34)c2)CN(C2CCN(C(=O)c3cccc(F)c3F)CC2)C1 [Example 276, {1-[1-(2,3-difluorobenzoyl)piperidin-4-yl]-3-[3-(7H-pyrrolo[2,3-d]pyrimidin-4-yl)-1H-pyrrol-1-yl]azetidin-3-yl}acetonitrile] | 4.0
N#CCC1(n2ccc(-c3ncnc4[nH]ccc34)c2)CN(C2CCN(C(=O)c3cc(F)ccc3F)CC2)C1 [Example 278, {1-[1-(2,5-difluorobenzoyl)piperidin-4-yl]-3-[3-(7H-pyrrolo[2,3-d]pyrimidin-4-yl)-1H-pyrrol-1-yl]azetidin-3-yl}acetonitrile] | 5.6
N#CCC1(n2ccc(-c3ncnc4[nH]ccc34)c2)CN(C2CCN(C(=O)c3c(F)cccc3F)CC2)C1 [Example 279, {1-[1-(2,6-difluorobenzoyl)piperidin-4-yl]-3-[3-(7H-pyrrolo[2,3-d]pyrimidin-4-yl)-1H-pyrrol-1-yl]azetidin-3-yl}acetonitrile] | 4.1
N#CCC1(n2ccc(-c3ncnc4[nH]ccc34)c2)CN(C2CCN(C(=O)c3ccc(F)c(F)c3F)CC2)C1 [Example 280, {3-[3-(7H-pyrrolo[2,3-d]pyrimidin-4-yl)-1H-pyrrol-1-yl]-1-[1-(2,3,4-trifluorobenzoyl)piperidin-4-yl]azetidin-3-yl}acetonitrile] | 7.5
N#CCC1(n2ccc(-c3ncnc4[nH]ccc34)c2)CN(C2CCN(C(=O)c3cccc(OC(F)(F)F)c3F)CC2)C1 [Example 281, {1-{1-[2-fluoro-3-(trifluoromethoxy)benzoyl]piperidin-4-yl}-3-[3-(7H-pyrrolo[2,3-d]pyrimidin-4-yl)-1H-pyrrol-1-yl]azetidin-3-yl}acetonitrile] | 10.0
COc1ncccc1NC(=O)N1CCC(N2CC(CC#N)(n3ccc(-c4ncnc5[nH]ccc45)c3)C2)CC1 [Example 284, 4-{3-(cyanomethyl)-3-[3-(7H-pyrrolo[2,3-d]pyrimidin-4-yl)-1H-pyrrol-1-yl]azetidin-1-yl}-N-(2-methoxypyridin-3-yl)piperidine-1-carboxamide] | 5.8
Cc1nc(C(F)(F)F)ccc1NC(=O)N1CCC(N2CC(CC#N)(n3ccc(-c4ncnc5[nH]ccc45)c3)C2)CC1 [Example 285, 4-{3-(cyanomethyl)-3-[3-(7H-pyrrolo[2,3-d]pyrimidin-4-yl)-1H-pyrrol-1-yl]azetidin-1-yl}-N-[2-methyl-6-(trifluoromethyl)pyridin-3-yl]piperidine-1-carboxamide] | 5.7
N#CCC1(n2ccc(-c3ncnc4[nH]ccc34)c2)CN(C2CCN(C(=O)Nc3ccccc3C#N)CC2)C1 [Example 287, 4-{3-(cyanomethyl)-3-[3-(7H-pyrrolo[2,3-d]pyrimidin-4-yl)-1H-pyrrol-1-yl]azetidin-1-yl}-N-(2-cyanophenyl)piperidine-1-carboxamide] | 6.7
COc1ccccc1NC(=O)N1CCC(N2CC(CC#N)(n3ccc(-c4ncnc5[nH]ccc45)c3)C2)CC1 [Example 288, 4-{3-(cyanomethyl)-3-[3-(7H-pyrrolo[2,3-d]pyrimidin-4-yl)-1H-pyrrol-1-yl]azetidin-1-yl}-N-(2-methoxyphenyl)piperidine-1-carboxamide] | 9.0

Now from value to compound:

IC50 Ratio JAK2/JAK1 | SMILES
6.6 | N#CCC1(n2ccc(-c3ncnc4[nH]ccc34)c2)CN(C2CCN(C(=O)c3ccc(C(F)(F)F)c(F)c3)CC2)C1 [Example 267, {1-{1-[3-fluoro-4-(trifluoromethyl)benzoyl]piperidin-4-yl}-3-[3-(7H-pyrrolo[2,3-d]pyrimidin-4-yl)-1H-pyrrol-1-yl]azetidin-3-yl}acetonitrile]
3.1 | N#CCC1(n2ccc(-c3ncnc4[nH]ccc34)c2)CN(C2CCN(C(=O)c3cccc(C(F)(F)F)c3)CC2)C1 [Example 268, (3-[3-(7H-pyrrolo[2,3-d]pyrimidin-4-yl)-1H-pyrrol-1-yl]-1-{1-[3-(trifluoromethyl)benzoyl]piperidin-4-yl}azetidin-3-yl)acetonitrile]
6.5 | N#CCC1(n2ccc(-c3ncnc4[nH]ccc34)c2)CN(C2CCN(C(=O)c3ccc(C(F)(F)F)cc3F)CC2)C1 [Example 272, {1-{1-[2-fluoro-4-(trifluoromethyl)benzoyl]piperidin-4-yl}-3-[3-(7H-pyrrolo[2,3-d]pyrimidin-4-yl)-1H-pyrrol-1-yl]azetidin-3-yl}acetonitrile]
4.4 | N#CCC1(n2ccc(-c3ncnc4[nH]ccc34)c2)CN(C2CCN(C(=O)c3cc(C(F)(F)F)ccc3F)CC2)C1 [Example 273, {1-{1-[2-fluoro-5-(trifluoromethyl)benzoyl]piperidin-4-yl}-3-[3-(7H-pyrrolo[2,3-d]pyrimidin-4-yl)-1H-pyrrol-1-yl]azetidin-3-yl}acetonitrile]
3.1 | N#CCC1(n2ccc(-c3ncnc4[nH]ccc34)c2)CN(C2CCN(C(=O)c3ccc(F)c(C(F)(F)F)c3)CC2)C1 [Example 275, {1-{1-[4-fluoro-3-(trifluoromethyl)benzoyl]piperidin-4-yl}-3-[3-(7H-pyrrolo[2,3-d]pyrimidin-4-yl)-1H-pyrrol-1-yl]azetidin-3-yl}acetonitrile]
9.8 | N#CCC1(n2ccc(-c3ncnc4[nH]ccc34)c2)CN(C2CCN(C(=O)c3ccc(F)c(F)c3)CC2)C1 [Example 277, {1-[1-(3,4-difluorobenzoyl)piperidin-4-yl]-3-[3-(7H-pyrrolo[2,3-d]pyrimidin-4-yl)-1H-pyrrol-1-yl]azetidin-3-yl}acetonitrile]
3.4 | N#CCC1(n2ccc(-c3ncnc4[nH]ccc34)c2)CN(C2CCN(C(=O)c3ccc(O)c(C(F)(F)F)c3)CC2)C1 [Example 282, {1-{1-[4-hydroxy-3-(trifluoromethyl)benzoyl]piperidin-4-yl}-3-[3-(7H-pyrrolo[2,3-d]pyrimidin-4-yl)-1H-pyrrol-1-yl]azetidin-3-yl}acetonitrile]
